Laboratory results: US20060112494A1, “Method of protecting an animal skin product from metalloproteinase activity” (priority 2004, published 2006)
Read-outs that look alike come from different tables or passages of the source.

Key:
[1] = tested on: mixed bacteria on fresh hide samples; parameters: Growth/Days 2 / Growth/Days 4: key to the marks not given beside the values; details: for Growth/Days 1: day 1; for Growth/Days 2: day 2; for Growth/Days 4: day 4;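 on all read-outs here: fresh hide pieces laid on inhibitor-containing nutrient agar supplemented with 0.5% Azocoll, incubated at 30 °C, then scored for growth of bacteria originating from the hide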
collagenase = details: for Collagenase Activity/Days 1: day 1; for Collagenase Activity/Days 2: day 2; for Collagenase Activity/Days 4: day 4; for Collagenase Activity/Days 7: day 7;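 on all read-outs here: nutrient agar containing 0.5% Azocoll with inhibitor, topped by a fresh hide piece, kept at 30 °C, collagenase from hide bacteria scored visually as clearing zone around growth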
Protocol: Nutrient agar amended with 0.5% AZOCOLL was used as the test medium to study collagenase activity. The nutrient agar was prepared and autoclaved and then was cooled to 55° C. Azocol was added to give a final concentration of 0.5%. […] Fresh hides were obtained from a tannery and were cut into pieces of approximately 2 cm square. One 2×2 cm hide sample was placed on top of the agar containing the inhibitors. Treated samples were incubated at 30° C. and evaluated after 24 hours, 2 days, 3 or 4 days and 7 days for collagenase activity and also for the growth of the bacteria. The bacteria from the hides secreted collagenase into the medium as they grew to degrade the collagen in the azocoll medium and collagenase activity was determined by visual inspection of the clear zone around the bacteria

With `O=C([O-])CN(CCN(CC(=O)[O-])CC(=O)[O-])CC(=O)[O-].[Na+].[Na+].[Na+].[Na+]` [Na4EDTA, ethylenediaminetetraacetic acid tetrasodium salt] the “Growth/Days 1” value ([1]; Conc. 0.025%) was “++++”, the “Growth/Days 2” value ([1]; Conc. 0.025%) was “++++” and the “Growth/Days 4” value ([1]; Conc. 0.025%) was “++++”. The “Growth/Days 1” value ([1]; Conc. 0.05%) was “++++”, the “Growth/Days 2” value ([1]; Conc. 0.05%) was “++++” and the “Growth/Days 4” value ([1]; Conc. 0.05%) was “++++”. The “Growth/Days 1” value ([1]; Conc. 0.075%) was “++++”, the “Growth/Days 2” value ([1]; Conc. 0.075%) was “++++” and the “Growth/Days 4” value ([1]; Conc. 0.075%) was “++++”. The “Growth/Days 1” value ([1]; Conc. 0.1%) was “++++”, the “Growth/Days 2” value ([1]; Conc. 0.1%) was “++++” and the “Growth/Days 4” value ([1]; Conc. 0.1%) was “++++”. The “Growth/Days 1” value ([1]; Conc. 0.2%) was “++++”, the “Growth/Days 2” value ([1]; Conc. 0.2%) was “++++” and the “Growth/Days 4” value ([1]; Conc. 0.2%) was “++++”. For the same compound, the “Growth/Days 1” value ([1]; Conc. 0.3%) was “++++”, the “Growth/Days 2” value ([1]; Conc. 0.3%) was “++++” and the “Growth/Days 4” value ([1]; Conc. 0.3%) was “++++”. For the same compound, the “Growth/Days 1” value ([1]; Conc. 0.4%) was “++++”, the “Growth/Days 2” value ([1]; Conc. 0.4%) was “++++” and the “Growth/Days 4” value ([1]; Conc. 0.4%) was “++++”. The “Growth/Days 1” value ([1]; Conc. 0.5%) was “++++”, the “Growth/Days 2” value ([1]; Conc. 0.5%) was “++++” and the “Growth/Days 4” value ([1]; Conc. 0.5%) was “++++”. The “Collagenase Activity/Days 1” value (collagenase; Conc. 0.025%) was “++++”, the “Collagenase Activity/Days 2” value (collagenase; Conc. 0.025%) was “++++” and the “Collagenase Activity/Days 4” value (collagenase; Conc. 0.025%) was “++++”. For the same compound, the “Collagenase Activity/Days 7” value (collagenase; Conc. 0.025%) was “++++”, the “Collagenase Activity/Days 1” value (collagenase; Conc. 0.05%) was “++++” and the “Collagenase Activity/Days 2” value (collagenase; Conc. 0.05%) was “++++”. For the same compound, the “Collagenase Activity/Days 4” value (collagenase; Conc. 0.05%) was “++++”, the “Collagenase Activity/Days 7” value (collagenase; Conc. 0.05%) was “++++” and the “Collagenase Activity/Days 1” value (collagenase; Conc. 0.075%) was “+”. The “Collagenase Activity/Days 2” value (collagenase; Conc. 0.075%) was “++”, the “Collagenase Activity/Days 4” value (collagenase; Conc. 0.075%) was “+++” and the “Collagenase Activity/Days 7” value (collagenase; Conc. 0.075%) was “++++”. The “Collagenase Activity/Days 1” value (collagenase; Conc. 0.1%) was 0, the “Collagenase Activity/Days 2” value (collagenase; Conc. 0.1%) was “+” and the “Collagenase Activity/Days 4” value (collagenase; Conc. 0.1%) was “++”. For the same compound, the “Collagenase Activity/Days 7” value (collagenase; Conc. 0.1%) was “+++”, the “Collagenase Activity/Days 1” value (collagenase; Conc. 0.2%) was 0 and the “Collagenase Activity/Days 2” value (collagenase; Conc. 0.2%) was “+”. The “Collagenase Activity/Days 4” value (collagenase; Conc. 0.2%) was “++”, the “Collagenase Activity/Days 7” value (collagenase; Conc. 0.2%) was “+++” and the “Collagenase Activity/Days 1” value (collagenase; Conc. 0.3%) was 0. For the same compound, the “Collagenase Activity/Days 2” value (collagenase; Conc. 0.3%) was “+”, the “Collagenase Activity/Days 4” value (collagenase; Conc. 0.3%) was “+” and the “Collagenase Activity/Days 7” value (collagenase; Conc. 0.3%) was “+++”. The “Collagenase Activity/Days 1” value (collagenase; Conc. 0.4%) was 0, the “Collagenase Activity/Days 2” value (collagenase; Conc. 0.4%) was “+” and the “Collagenase Activity/Days 4” value (collagenase; Conc. 0.4%) was “+”. For the same compound, the “Collagenase Activity/Days 7” value (collagenase; Conc. 0.4%) was “+++”, the “Collagenase Activity/Days 1” value (collagenase; Conc. 0.5%) was 0 and the “Collagenase Activity/Days 2” value (collagenase; Conc. 0.5%) was 0. The “Collagenase Activity/Days 7” value (collagenase; Conc. 0.5%) was “++”.
